Source: PubChem BioAssay (NCI)
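Protocol summary: plate cells (96-well), add compound at 5 concentrations, incubate 48 h, interpolate endpoints linearly. At the TGI there is no net growth.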

Assays:
Assay in all cases: NCI tumour cell line growth inhibition, 48 h
[1] = test system: NCI-H226 lung
[2] = test system: DU-145 prostate
[3] = test system: SN12C renal
[4] = test system: PC-3 prostate
[5] = test system: HOP-62 NSCLC
[6] = test system: OVCAR-8 ovarian
[7] = test system: 786-0 renal
[8] = test system: SK-OV-3 ovarian
[9] = test system: MALME-3M melanoma
[10] = test system: HCT-15 colon
[11] = test system: MCF7 breast
[12] = test system: OVCAR-5 ovarian
[13] = test system: NCI-H23 lung
[14] = test system: T-47D breast
[15] = test system: A498 renal
[16] = test system: CCRF-CEM leukemia
[17] = test system: KM12 colon
[18] = test system: U251 CNS
[19] = test system: SR leukemia
[20] = test system: HT29 colon
[21] = test system: SNB-19 CNS
[22] = test system: SW-620 colon
[23] = test system: RPMI-8226 leukemia
[24] = test system: MDA-MB-231 breast
[25] = test system: SF-268 CNS
[26] = test system: MOLT-4 leukemia
[27] = test system: COLO 205 colon
[28] = test system: A549 NSCLC
[29] = test system: EKVX NSCLC
[30] = test system: SK-MEL-5 melanoma
[31] = test system: HCT-116 colon
[32] = test system: HL-60(TB) leukemia
[33] = test system: M14 melanoma
[34] = test system: RXF 393 renal
[35] = test system: NCI-H460 lung
[36] = test system: IGROV1 ovarian
[37] = test system: K-562 leukemia
[38] = test system: UACC-62 melanoma
[39] = test system: OVCAR-3 ovarian
[40] = test system: HS 578T breast
[41] = test system: UACC-257 melanoma
[42] = test system: HOP-92 NSCLC
[43] = test system: LOX IMVI melanoma
[44] = test system: NCI-H522 lung
[45] = test system: SF-295 CNS
[46] = test system: NCI/ADR-RES ovarian
[47] = test system: BT-549 breast
[48] = test system: CAKI-1 renal
[49] = test system: ACHN renal
[50] = test system: UO-31 renal
[51] = test system: HCC-2998 colon
[52] = test system: SF-539 CNS
[53] = test system: TK-10 renal
[54] = test system: SK-MEL-2 melanoma
[55] = test system: OVCAR-4 ovarian
[56] = test system: SNB-75 CNS
[57] = test system: SK-MEL-28 melanoma
[58] = test system: MDA-MB-435

Molecule Cc1ccc(/C(O)=C/C(=O)C(=O)/C=C(\O)c2ccc(C)cc2C)c(C)c1 has a TGI [1] of 4.51 µM, a TGI [2] of 5.43 µM and a TGI [3] of 4.88 µM. The TGI [4] was 5.64 µM, the TGI [5] was 3.24 µM and the TGI [6] was 7.63 µM. It also gave a TGI [7] of 4.28 µM, a TGI [8] of 3.47 µM and a TGI [9] of 3.45 µM. For the same molecule, the TGI [10] was 4.47 µM, the TGI [11] was 4.33 µM and the TGI [12] was 3.88 µM. It also gave a TGI [13] of 3.5 µM, a TGI [14] of 4.46 µM and a TGI [15] of 4.7 µM. It also gave a TGI [16] of 3.17 µM, a TGI [17] of 3.44 µM and a TGI [18] of 3.49 µM. It also gave a TGI [19] of 4.8 µM, a TGI [20] of over 20.8 µM and a TGI [21] of 5.67 µM. For the same molecule, the TGI [22] was 6.88 µM, the TGI [23] was 4.59 µM and the TGI [24] was 4.83 µM. The TGI [25] was 4.02 µM, the TGI [26] was 4.67 µM and the TGI [27] was 3.66 µM. It also gave a TGI [28] of 4.16 µM, a TGI [29] of 5.56 µM and a TGI [30] of 3.26 µM. For the same molecule, the TGI [31] was 6.58 µM, the TGI [32] was 0.58 µM and the TGI [33] was 3.27 µM. For the same molecule, the TGI [34] was 4.22 µM, the TGI [35] was 3.47 µM and the TGI [36] was 4.42 µM. The TGI [37] was 9.58 µM, the TGI [38] was 3.38 µM and the TGI [39] was 3.51 µM. The TGI [40] was 5.15 µM, the TGI [41] was 3.21 µM and the TGI [42] was 8.6 µM. It also gave a TGI [43] of 5.96 µM, a TGI [44] of 4.53 µM and a TGI [45] of 3.38 µM. It also gave a TGI [46] of 4.12 µM, a TGI [47] of 3.23 µM and a TGI [48] of 3.69 µM. It also gave a TGI [49] of 3.65 µM, a TGI [50] of 3.65 µM and a TGI [51] of 4.09 µM. For the same molecule, the TGI [52] was 3.56 µM, the TGI [53] was 3.45 µM and the TGI [54] was 3.65 µM. It also gave a TGI [55] of 9.04 µM, a TGI [56] of 4.19 µM and a TGI [57] of 3.84 µM. It also gave a TGI [58] of 3.99 µM.
